We go through one molecule from US5635608A, “α-carboxy caged compounds” (Molecular Probes, Inc., priority 1994, dated 1997).

The experiment concerns whole neuron. Description: Release of a caged neurotransmitter in situ: whole-cell current of a neuron before and on photolysis. Format: cell-based. The text has this: FIG. 2: The photolysis of a caged probe in situ, as described in Example 15.
A whole neuron is bathed in a solution of γ-(α-carboxy o-nitrobenzyl)-caged glutamic acid (3), as described in Example 1. The whole-cell current is then monitored as the neuron is photolyrically illuminated at 343 nm. […] This indicates both that the uncaging of a CNB-caged probe is extremely rapid, but also verifies that the caged neurotransmitter is inert in situ until uncaged.

Consider `N[C@@H](CCC(=O)OC(C(=O)O)c1ccccc1[N+](=O)[O-])C(=O)O` (stereo partly drawn) [Compound 3, L-Glutamic Acid, γ-(α-carboxy-o-nitrobenzyl) ester], for which the “whole-cell current on photolytic illumination” value (illumination at 343 nm, begun at time=0 ms, FIG. 2) is “increases rapidly”. Besides, the “activity of the caged neurotransmitter in situ before uncaging (whole-cell current)” value (whole neuron bathed in solution of caged glutamic acid, before illumination) is “inert”.
